In ChEMBL document CHEMBL1212867, “Anhydrotetracycline-peptide conjugates as representatives for ligand-based transactivating systems” (Bioorg Med Chem, 2010):
Non-standard residues stand in square brackets, D forms with d. Residues, ends and D or L forms follow the SMILES beside them. *: point of attachment. X1 = Cc1c2c(c(O)c3c(O)c(N*)ccc13)C(=O)[C@]1(O)C(=O)C(C(N)=O)=C(O)[C@@H](N(C)C)[C@@H]1C2; AEEEA = NCCOCCOCCOCC(=O)O

Key:
HeLa [1] = test: Transactivation of reverse transactivator Tet repressor-S3 expressed in human HeLa cells at 5 uM after 24 hrs by luciferase reporter gene assay relative to anhydrotetracycline; type: cell-based
HeLa [2] = test: Transactivation of Reverse transactivator Tet repressor-S3 SL439, FG442, SL444 and FA475 mutant expressed in human HeLa cells at 5 uM after 24 hrs by luciferase reporter gene assay relative to untreated basal level; type: cell-based

`CSCC[C@H](NC(=O)[C@H](CC(=O)O)NC(=O)[C@H](CC(C)C)NC(=O)[C@H](CC(=O)O)NC(=O)[C@H](Cc1ccccc1)NC(=O)[C@H](CC(=O)O)NC(=O)CNC(=O)[C@H](CC(C)C)NC(=O)[C@H](CCSC)NC(=O)[C@H](CC(=O)O)NC(=O)[C@H](CC(C)C)NC(=O)[C@H](CC(=O)O)NC(=O)[C@H](Cc1ccccc1)NC(=O)[C@H](CC(=O)O)NC(=O)COCCOCCOCCN)C(=O)N[C@@H](CC(C)C)C(=O)NCC(=O)NCCOCCOCCOCC(=O)Nc1ccc2c(C)c3c(c(O)c2c1O)C(=O)[C@]1(O)C(=O)C(C(N)=O)=C(O)[C@@H](N(C)C)[C@@H]1C3` (H-[AEEEA]DFDLDMLGDFDLDMLG[AEEEA]-X1) gave an Activity (HeLa [1]) of 190% and a fold change (FC) (HeLa [2]) of 9.

In the case of `CSCC[C@H](NC(=O)[C@H](CC(=O)O)NC(=O)[C@H](CC(C)C)NC(=O)[C@H](CC(=O)O)NC(=O)[C@H](Cc1ccccc1)NC(=O)[C@@H](N)CC(=O)O)C(=O)N[C@@H](CC(C)C)C(=O)NCC(=O)NCCOCCOCCOCC(=O)Nc1ccc2c(C)c3c(c(O)c2c1O)C(=O)[C@]1(O)C(=O)C(C(N)=O)=C(O)[C@@H](N(C)C)[C@@H]1C3` (H-DFDLDMLG[AEEEA]-X1), the Activity (HeLa [1]) is reported as 150%.

For `Cc1c2c(c(O)c3c(O)cccc13)C(=O)[C@]1(O)C(=O)C(C(N)=O)=C(O)[C@@H](N(C)C)[C@@H]1C2`, the fold change (FC) (HeLa [2]) was 3.
